Test results reported in ChEMBL document CHEMBL5352410, “Discovery of novel selenium-containing azole derivatives as antifungal agents by exploiting the hydrophobic cleft of CYP51” (Eur J Med Chem, 2022).
In brackets after ≈: the same amount, converted by molar mass. Activity calls are given as the source filed them. The rule behind the calls is not given here.

Experiments:
[1] = test system: Candida albicans; test: Antifungal activity against FCZ-resistant Candida albicans 17# by CLSI based broth microdilution method; type: functional
[2] = test system: Candida albicans; test: Antifungal activity against FCZ-resistant Candida albicans 901 by CLSI based broth microdilution method; type: functional
[3] = test system: Candida albicans; test: Antifungal activity against FCZ-resistant Candida albicans 904 by CLSI based broth microdilution method; type: functional
[4] = test system: Candida albicans; test: Fungicidal activity against Candida albicans; type: functional
[5] = test system: Candida albicans; test: Fungicidal activity against Candida albicans sc5314; type: functional
[6] = test system: Candida albicans; test: Fungicidal activity against FCZ-resistant Candida albicans 632; type: functional
[7] = test system: Candida albicans; test: Fungicidal activity against FCZ-resistant Candida albicans 901; type: functional
[8] = test system: Candida albicans; test: Fungicidal activity against FCZ-resistant Candida albicans 904; type: functional
[9] = target: T1, Lanosterol 14-alpha demethylase (Candida albicans (strain SC5314 / ATCC MYA-2876) (Yeast), UniProt P10613); test: Inhibition of CYP51 of Candida albicans ATCC SC5314 assessed as decrease in ergosterol level by measuring residual activity at 1 ug/ml incubated for 16 hrs by GC-MS analysis (reference value: 98.3 %); settings: at 1 µg/mL
[10] = target: T1, Lanosterol 14-alpha demethylase; test: Inhibition of CYP51 of Candida albicans ATCC SC5314 assessed as decrease in ergosterol level by measuring residual activity at 2 ug/ml incubated for 16 hrs by GC-MS analysis (reference value: 98.3 %); settings: at 2 µg/mL
[11] = target: T1, Lanosterol 14-alpha demethylase; test: Inhibition of CYP51 of Candida albicans ATCC SC5314 assessed as decrease in ergosterol level by measuring residual activity at 4 ug/ml incubated for 16 hrs by GC-MS analysis (reference value: 98.3 %); settings: at 4 µg/mL
[12] = target: T1, Lanosterol 14-alpha demethylase; test: Inhibition of CYP51 of Candida albicans ATCC SC5314 assessed as decrease in ergosterol level by measuring residual activity at 8 ug/ml incubated for 16 hrs by GC-MS analysis (reference value: 98.3 %); settings: at 8 µg/mL
[13] = target: T1, Lanosterol 14-alpha demethylase; test: Inhibition of CYP51 of Candida albicans ATCC SC5314 assessed as increase in obtusifoliol level at 2 ug/ml incubated for 16 hrs by GC-MS analysis (reference value: 0 %); design: scale not given: the % may be the effect or the level left; settings: at 2 µg/mL
[14] = target: T1, Lanosterol 14-alpha demethylase; test: Inhibition of CYP51 of Candida albicans ATCC SC5314 assessed as increase in obtusifoliol level at 4 ug/ml incubated for 16 hrs by GC-MS analysis (reference value: 0 %); design: scale not given: the % may be the effect or the level left; settings: at 4 µg/mL
[15] = target: T1, Lanosterol 14-alpha demethylase; test: Inhibition of CYP51 of Candida albicans ATCC SC5314 assessed as increase in obtusifoliol level at 8 ug/ml incubated for 16 hrs by GC-MS analysis (reference value: 0 %); design: scale not given: the % may be the effect or the level left; settings: at 8 µg/mL
[16] = target: T1, Lanosterol 14-alpha demethylase; test: Inhibition of CYP51 of Candida albicans ATCC SC5314 assessed as increase in lanosterol level at 1 ug/ml incubated for 16 hrs by GC-MS analysis (reference value: 1.7 %); design: scale not given: the % may be the effect or the level left; settings: at 1 µg/mL
[17] = target: T1, Lanosterol 14-alpha demethylase; test: Inhibition of CYP51 of Candida albicans ATCC SC5314 assessed as increase in lanosterol level at 2 ug/ml incubated for 16 hrs by GC-MS analysis (reference value: 1.7 %); design: scale not given: the % may be the effect or the level left; settings: at 2 µg/mL
[18] = target: T1, Lanosterol 14-alpha demethylase; test: Inhibition of CYP51 of Candida albicans ATCC SC5314 assessed as increase in lanosterol level at 4 ug/ml incubated for 16 hrs by GC-MS analysis (reference value: 1.7 %); design: scale not given: the % may be the effect or the level left; settings: at 4 µg/mL
[19] = target: T1, Lanosterol 14-alpha demethylase; test: Inhibition of CYP51 of Candida albicans ATCC SC5314 assessed as increase in eburicol level at 1 ug/ml incubated for 16 hrs by GC-MS analysis (reference value: 0 %); design: scale not given: the % may be the effect or the level left; settings: at 1 µg/mL
[20] = target: T1, Lanosterol 14-alpha demethylase; test: Inhibition of CYP51 of Candida albicans ATCC SC5314 assessed as increase in eburicol level at 2 ug/ml incubated for 16 hrs by GC-MS analysis (reference value: 0 %); design: scale not given: the % may be the effect or the level left; settings: at 2 µg/mL
[21] = target: T1, Lanosterol 14-alpha demethylase; test: Inhibition of CYP51 of Candida albicans ATCC SC5314 assessed as increase in eburicol level at 8 ug/ml incubated for 16 hrs by GC-MS analysis (reference value: 0 %); design: scale not given: the % may be the effect or the level left; settings: at 8 µg/mL
[22] = test system: Candida albicans; test: Antibiofilm activity against Candida albicans SC5314 assessed as sessile minimum inhibitory concentration measured after 3 hrs by XTT assay; type: functional
[23] = test system: Candida albicans; test: Antibiofilm activity against Candida albicans SC5314 assessed as sessile minimum inhibitory concentration measured after 6 hrs by XTT assay; type: functional
[24] = test system: Candida albicans; test: Antibiofilm activity against Candida albicans SC5314 assessed as sessile minimum inhibitory concentration measured after 24 hrs by XTT assay; type: functional
[25] = test system: Candida albicans; test: Antibiofilm activity against Candida albicans CPCC400616 assessed as sessile minimum inhibitory concentration measured after 1.5 hrs by XTT assay; type: functional
[26] = test system: Candida albicans; test: Antibiofilm activity against Candida albicans CPCC400616 assessed as sessile minimum inhibitory concentration measured after 3 hrs by XTT assay; type: functional
[27] = test system: Candida albicans; test: Antibiofilm activity against Candida albicans CPCC400616 assessed as sessile minimum inhibitory concentration measured after 6 hrs by XTT assay; type: functional
[28] = Cytotoxicity against human HL-60 cells by MTT assay; type: toxicity, cell-based
[29] = Metabolic stability in mouse liver microsome assessed as half life; type: ADME; settings: liver microsomes
[30] = Metabolic stability in mouse liver microsome assessed as clearance; type: ADME; settings: liver microsomes, read-out: CLH
[31] = test system: Candida albicans; test: Antifungal activity against Candida albicans ATCC SC5314 infected in mouse model assessed as reduction in kidney fungal burden at 6 to 12 mg/kg, ip measured after 5 consecutive days by colony forming unit assay; type: functional, organism-based; settings: dose 6-12 mg/kg, time 5.0 day
[32] = Acute toxicity in water diet-fed Kunming mouse assessed as change in body weight at 500 mg/kg, IG measured for 7 days; type: organism-based; settings: in vivo, po, 168 h, time 7 day
[33] = Acute toxicity in water diet-fed Kunming mouse administered intragastrically measured for 7 days; settings: in vivo, po, route ig, time 7 day
[34] = Subacute toxicity in water diet-fed Kunming mouse assessed as adverse reactions at 100 to 200 mg/kg, IG measured for 48 hrs; type: organism-based; settings: in vivo, po, dose 100-200 mg/kg
[35] = Subacute toxicity in water diet-fed Kunming mouse assessed as animal death at 100 to 200 mg/kg, IG measured after 7 to 14 days of continuous administration; type: organism-based; settings: in vivo, po, dose lower 100 mg/kg, time lower 7 day, dose upper 200 mg/kg, time upper 14 day
[36] = Subacute toxicity in water diet-fed Kunming mouse assessed as lesions in liver at 100 to 200 mg/kg, IG measured after 8 to 15 days; type: organism-based; settings: in vivo, po, dose lower 100 mg/kg, time lower 8 day, dose upper 200 mg/kg, time upper 15 day
[37] = Subacute toxicity in water diet-fed Kunming mouse assessed as lesions in kidney at 100 to 200 mg/kg, IG measured after 8 to 15 days; type: organism-based; settings: in vivo, po, dose lower 100 mg/kg, time lower 8 day, dose upper 200 mg/kg, time upper 15 day
[38] = Subacute toxicity in water diet-fed Kunming mouse assessed as liver edema at 100 to 200 mg/kg, IG measured after 7 to 14 days by microscopic analysis; type: organism-based; settings: in vivo, po, dose lower 100 mg/kg, time lower 7 day, dose upper 200 mg/kg, time upper 14 day

T1 sequence (P10613 whole entry): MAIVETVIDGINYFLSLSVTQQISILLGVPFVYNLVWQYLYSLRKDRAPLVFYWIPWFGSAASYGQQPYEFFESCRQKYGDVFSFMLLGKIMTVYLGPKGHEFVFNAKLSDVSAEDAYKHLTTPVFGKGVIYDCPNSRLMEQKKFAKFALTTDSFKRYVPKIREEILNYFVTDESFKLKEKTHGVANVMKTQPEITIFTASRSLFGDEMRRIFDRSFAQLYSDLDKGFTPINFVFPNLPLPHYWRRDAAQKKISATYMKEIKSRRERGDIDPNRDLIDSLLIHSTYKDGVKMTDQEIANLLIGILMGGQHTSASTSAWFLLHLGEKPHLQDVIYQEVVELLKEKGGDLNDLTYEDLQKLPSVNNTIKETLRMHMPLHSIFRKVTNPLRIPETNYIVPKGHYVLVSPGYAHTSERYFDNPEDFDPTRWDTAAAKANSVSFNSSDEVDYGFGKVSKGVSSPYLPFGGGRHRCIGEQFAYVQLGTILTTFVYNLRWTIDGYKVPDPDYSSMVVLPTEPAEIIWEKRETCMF

SMILES: Clc1ccc(C(Cn2ccnc2)[Se][Se]C(Cn2ccnc2)c2ccc(Cl)cc2Cl)c(Cl)c1 (centres undefined)
- MIC [1]: 8 µg/mL (≈ 12.5 µM)
- MIC [2]: 2 µg/mL (≈ 3.13 µM)
- MIC [3]: 4 µg/mL (≈ 6.27 µM)
- MFC [4]: 16 µg/mL (≈ 25.1 µM)
- MFC [5]: 8 µg/mL (≈ 12.5 µM)
- MFC [6]: 16 µg/mL (≈ 25.1 µM)
- MFC [7]: 2 µg/mL (≈ 3.13 µM)
- MFC [8]: 4 µg/mL (≈ 6.27 µM)
- Activity [9]: 24.4%
- Activity [10]: 2.4%
- Activity [11]: 2.7%
- Activity [12]: 2.2%
- Activity [13]: 12.2%
- Activity [14]: 13.5%
- Activity [15]: 19.8%
- Activity [16]: 8.4%
- Activity [17]: 22.6%
- Activity [18]: 14.2%
- Activity [19]: 60.8%
- Activity [20]: 62.8%
- Activity [21]: 61.3%
- MIC50 [22]: 0.5 µg/mL (≈ 0.784 µM)
- MIC80 [22]: 4 µg/mL (≈ 6.27 µM)
- MIC50 [23]: 0.5 µg/mL (≈ 0.784 µM)
- MIC80 [23]: 4 µg/mL (≈ 6.27 µM)
- MIC50 [24]: 0.5 µg/mL (≈ 0.784 µM)
- MIC80 [24]: 32 µg/mL (≈ 50.1 µM)
- MIC50 [25]: 0.5 µg/mL (≈ 0.784 µM)
- MIC80 [25]: 2 µg/mL (≈ 3.13 µM)
- MIC50 [26]: 0.5 µg/mL (≈ 0.784 µM)
- MIC80 [26]: 4 µg/mL (≈ 6.27 µM)
- MIC50 [27]: 1 µg/mL (≈ 1.57 µM)
- MIC80 [27]: 4 µg/mL (≈ 6.27 µM)
- IC50 [28]: 32.5 µM
- half-life [29]: 41.1 min
- CLint scaled [30]: 134 mL/min/kg
- Activity [31]: Active
- Activity [32]: Non-Toxic
- LD50 at 168 h [33]: ~2000 mg/kg
- Activity [34]: Non-Toxic
- Activity [35]: Non-Toxic
- Activity [36]: Non-Toxic
- Activity [37]: Non-Toxic
- Activity [38]: Toxic
